Experimental data reported in US9296734B2 (AMGEN INC., priority 2013, dated 2016).
Read-outs that look alike come from different tables or passages of the source.

Assays:
[1] = biological target: Beta Secretase enzyme (BACE) (Homo sapiens (Human), UniProt P56817); assay: In vitro enzymatic BACE FRET assay; type: biochemical; conditions: read-out: BACE 1 FRET assay IC50
Summary of the method: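 A quenched fluorophore-peptide spanning the BACE cleavage site served as substrate at 50 nM, with one-hour incubation in pH 4.2 acetate buffer containing 100 uM genapol and 10% DMSO final. Fluorescence was measured after quenching with Tris to neutral pH.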

[2] = biological target: Cathepsin D (Cat D) (Homo sapiens (Human), UniProt P07339); assay: In vitro enzymatic Cathepsin D (Cat D) FRET assay; type: biochemical; conditions: read-out: CatD IC50
Sequence of Cathepsin D (Cat D) (P07339 65-412, species assumed): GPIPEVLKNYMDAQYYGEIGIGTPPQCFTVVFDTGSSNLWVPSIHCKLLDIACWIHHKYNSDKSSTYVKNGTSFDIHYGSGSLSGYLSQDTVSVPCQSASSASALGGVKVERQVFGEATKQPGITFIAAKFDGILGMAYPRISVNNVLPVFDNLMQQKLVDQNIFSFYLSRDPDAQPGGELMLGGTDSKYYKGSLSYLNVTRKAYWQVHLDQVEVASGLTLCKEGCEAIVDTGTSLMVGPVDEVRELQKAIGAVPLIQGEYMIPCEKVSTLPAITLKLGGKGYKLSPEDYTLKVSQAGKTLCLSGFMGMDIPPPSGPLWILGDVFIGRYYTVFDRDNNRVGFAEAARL
Summary of the method: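 CHO-expressed recombinant Cat D cleaves a fluorophore/quencher FRET peptide (20 nM) in 0.05 M citrate pH 3.5, 5 mM CHAPS, 10% DMSO final, over 1 h. Tris addition neutralizes pH to stop the reaction; fluorescence read at excitation 500 nm, emission 580 nm.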

[3] = tested on: Aβ40 in conditioned medium of cells stably expressing Amyloid Precursor Protein (APP); assay: In vitro BACE cell-based assay (Aβ40 sandwich ELISA); conditions: Homo sapiens
Summary of the method: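 Aβ40 in supernatants was measured by time-resolved fluorescence sandwich ELISA using pAb40 capture and biotinylated 6E10 detection, with antibody incubations at 4 °C. Stable APP cells were exposed to compounds for 24 h in a 10-point series (top dose 100 or 10 µM, 0.1% DMSO). IC50 was fitted from the concentration-response.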

[4] = HEK293, HEK cells, average, read-out: HEK cell assay IC50
[5] = HEK293, read-out: HEK cell assay IC50

Sequence of Beta Secretase enzyme (BACE) (P56817 46-501): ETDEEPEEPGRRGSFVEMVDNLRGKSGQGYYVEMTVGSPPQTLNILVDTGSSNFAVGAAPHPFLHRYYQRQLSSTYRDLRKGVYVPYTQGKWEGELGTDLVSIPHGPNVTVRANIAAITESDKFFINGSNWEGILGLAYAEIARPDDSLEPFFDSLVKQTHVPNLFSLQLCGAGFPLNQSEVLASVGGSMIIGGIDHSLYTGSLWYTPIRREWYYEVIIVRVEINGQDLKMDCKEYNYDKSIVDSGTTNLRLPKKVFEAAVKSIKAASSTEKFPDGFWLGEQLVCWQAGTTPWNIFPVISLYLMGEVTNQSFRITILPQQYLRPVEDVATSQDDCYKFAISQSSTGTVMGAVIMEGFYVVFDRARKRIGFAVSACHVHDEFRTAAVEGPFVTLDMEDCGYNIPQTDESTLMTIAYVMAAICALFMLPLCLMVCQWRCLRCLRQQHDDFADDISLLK

Structure (SMILES) | IC50 ([1]; average IC50) [µM] | IC50 ([1]; average) [µM] | IC50 ([2]; average IC50) [µM] | IC50 ([2]; average) [µM] | IC50 [3, 4] [µM] | IC50 ([3]; HEK293, average IC50, HEK cells, read-out: HEK cell assay IC50) [µM] | IC50 [3, 5] [µM]
C[C@@]1(c2cc(NC(=O)c3cnc(C(F)F)cn3)cc(F)c2F)C[C@@H](C(F)(F)F)OC(N)=N1 [Example 193, N-(3-((4S,6S)-2-amino-4-methyl-6-(trifluoromethyl)-5,6-dihydro-4H-1,3-oxazin-4-yl)-4,5-difluorophenyl)-5-(difluoromethyl)pyrazine-2-carboxamide] | 0.0461 | 0.075 | > 400 | 1270 | 0.018 | 0.0213 | –
COc1cc(Cl)cnc1C(=O)Nc1cc(F)c(F)c([C@]2(C)C[C@@H](C(F)(F)F)OC(N)=N2)c1 [Example 195, N-(3-((4S,6S)-2-amino-4-methyl-6-(trifluoromethyl)-5,6-dihydro-4H-1,3-oxazin-4-yl)-4,5-difluorophenyl)-5-chloro-3-methoxypicolinamide] | – | 0.071 | – | > 400 | 0.011 | – | –
C[C@@]1(c2cc(NC(=O)c3nn(C(F)F)cc3Cl)cc(F)c2F)C[C@@H](C(F)(F)F)OC(N)=N1 [Example 196, N-(3-((4S,6S)-2-amino-4-methyl-6-(trifluoromethyl)-5,6-dihydro-4H-1,3-oxazin-4-yl)-4,5-difluorophenyl)-4-chloro-1-(difluoromethyl)-1H-pyrazole-3-carboxamide] | – | 0.011 | – | 628 | 0.007 | – | –
COCc1cc(Cl)cnc1C(=O)Nc1cc(F)c(F)c([C@]2(C)C[C@@H](C(F)(F)F)OC(N)=N2)c1 [Example 199, N-(3-((4S,6S)-2-amino-4-methyl-6-(trifluoromethyl)-5,6-dihydro-4H-1,3-oxazin-4-yl)-4,5-difluorophenyl)-5-chloro-3-(methoxymethyl)picolinamide] | – | 0.016 | – | 1710 | 0.013 | – | –
C[C@@]1(c2cc(NC(=O)c3cnc(OCc4ncco4)cn3)cc(F)c2F)C[C@@H](C(F)(F)F)OC(N)=N1 [Example 204, N-(3-((4S,6S)-2-amino-4-methyl-6-(trifluoromethyl)-5,6-dihydro-4H-1,3-oxazin-4-yl)-4,5-difluorophenyl)-5-(oxazol-2-ylmethoxy)pyrazine-2-carboxamide] | – | 0.006 | – | 1040 | – | – | 0.003
C[C@@]1(c2cc(NC(=O)c3ncc(C#N)cc3F)cc(F)c2F)C[C@@H](C(F)(F)F)OC(N)=N1 [Example 205, N-(3-((4S,6S)-2-amino-4-methyl-6-(trifluoromethyl)-5,6-dihydro-4H-1,3-oxazin-4-yl)-4,5-difluorophenyl)-5-cyano-3-fluoropicolinamide] | – | 0.039 | – | > 400 | 0.01 | – | –
C[C@@]1(c2cc(NC(=O)c3ccc(C#N)cn3)cc(Cl)c2F)C[C@@H](C(F)(F)F)OC(N)=N1 [Example 206, N-(3-((4S,6S)-2-amino-4-methyl-6-(trifluoromethyl)-5,6-dihydro-4H-1,3-oxazin-4-yl)-5-chloro-4-fluorophenyl)-5-cyanopicolinamide] | – | 0.023 | – | 488 | 0.012 | – | –
COc1cnc(C(=O)Nc2cc(Cl)c(F)c([C@]3(C)C[C@@H](C(F)(F)F)OC(N)=N3)c2)cn1 [Example 208, N-(3-((4S,6S)-2-amino-4-methyl-6-(trifluoromethyl)-5,6-dihydro-4H-1,3-oxazin-4-yl)-5-chloro-4-fluorophenyl)-5-methoxypyrazine-2-carboxamide] | – | 0.012 | – | 394 | – | – | 0.003
COc1ccc(C(=O)Nc2cc(Cl)c(F)c([C@]3(C)C[C@@H](C(F)(F)F)OC(N)=N3)c2)nc1 [Example 209, N-(3-((4S,6S)-2-amino-4-methyl-6-(trifluoromethyl)-5,6-dihydro-4H-1,3-oxazin-4-yl)-5-chloro-4-fluorophenyl)-5-methoxypicolinamide] | – | 0.015 | – | 622 | 0.035 | – | –
C[C@@]1(c2cc(NC(=O)c3cnc(C(F)F)cn3)cc(Cl)c2F)C[C@@H](C(F)(F)F)OC(N)=N1 [Example 211, N-(3-((4S,6S)-2-amino-4-methyl-6-(trifluoromethyl)-5,6-dihydro-4H-1,3-oxazin-4-yl)-5-chloro-4-fluorophenyl)-5-(difluoromethyl)pyrazine-2-carboxamide] | – | 0.062 | – | 604 | – | – | 0.047
C#CCOc1cnc(C(=O)Nc2cc(Cl)c(F)c([C@]3(C)C[C@@H](C(F)(F)F)OC(N)=N3)c2)cn1 [Example 212, N-(3-((4S,6S)-2-amino-4-methyl-6-(trifluoromethyl)-5,6-dihydro-4H-1,3-oxazin-4-yl)-5-chloro-4-fluorophenyl)-5-(prop-2-yn-1-yloxy)pyrazine-2-carboxamide] | – | < 0.002 | – | 554 | 0.001 | – | –
C[C@@]1(c2cc(NC(=O)c3ccc(Br)cn3)cc(Cl)c2F)C[C@@H](C(F)(F)F)OC(N)=N1 [Example 213, N-(3-((4S,6S)-2-amino-4-methyl-6-(trifluoromethyl)-5,6-dihydro-4H-1,3-oxazin-4-yl)-5-chloro-4-fluorophenyl)-5-bromopicolinamide] | – | 0.01 | – | 739 | 0.0319 | – | –
C[C@@]1(c2cc(NC(=O)c3cnc(OCC(F)(F)F)cn3)cc(Cl)c2F)C[C@@H](C(F)(F)F)OC(N)=N1 [Example 214, N-(3-((4S,6S)-2-amino-4-methyl-6-(trifluoromethyl)-5,6-dihydro-4H-1,3-oxazin-4-yl)-5-chloro-4-fluorophenyl)-5-(2,2,2-trifluoroethoxy)pyrazine-2-carboxamide] | – | 0.008 | – | > 400 | 0.029 | – | –
COc1cnc(C(=O)Nc2cc(C)c(F)c([C@]3(CF)C[C@@H](C(F)(F)F)OC(N)=N3)c2)c(C)n1 [Example 217, N-(3-((4S,6S)-2-amino-4-(fluoromethyl)-6-(trifluoromethyl)-5,6-dihydro-4H-1,3-oxazin-4-yl)-4-fluoro-5-methylphenyl)-5-methoxy-3-methylpyrazine-2-carboxamide] | – | 0.081 | – | 634 | 0.038 | – | –
C#CCOc1cnc(C(=O)Nc2cc(C)c(F)c([C@]3(CF)C[C@@H](C(F)(F)F)OC(N)=N3)c2)cn1 [Example 218, N-(3-((4S,6S)-2-amino-4-(fluoromethyl)-6-(trifluoromethyl)-5,6-dihydro-4H-1,3-oxazin-4-yl)-4-fluoro-5-methylphenyl)-5-(prop-2-yn-1-yloxy)pyrazine-2-carboxamide] | – | 0.001 | – | 188 | 0.002 | – | –
Cc1cc(C#N)cnc1C(=O)Nc1cc(C)c(F)c([C@]2(CF)C[C@@H](C(F)(F)F)OC(N)=N2)c1 [Example 219, N-(3-((4S,6S)-2-amino-4-(fluoromethyl)-6-(trifluoromethyl)-5,6-dihydro-4H-1,3-oxazin-4-yl)-4-fluoro-5-methylphenyl)-5-cyano-3-methylpicolinamide] | – | 0.02 | – | > 400 | 0.011 | – | –
Cc1cc(OCC(F)(F)F)cnc1C(=O)Nc1cc(C)c(F)c([C@]2(CF)C[C@@H](C(F)(F)F)OC(N)=N2)c1 [Example 220, N-(3-((4S,6S)-2-amino-4-(fluoromethyl)-6-(trifluoromethyl)-5,6-dihydro-4H-1,3-oxazin-4-yl)-4-fluoro-5-methylphenyl)-3-methyl-5-(2,2,2-trifluoroethoxy)picolinamide] | – | 0.066 | – | 263 | – | – | 0.429
COc1cc(Cl)cnc1C(=O)Nc1cc(C)c(F)c([C@]2(CF)C[C@@H](C(F)(F)F)OC(N)=N2)c1 [Example 222, N-(3-((4S,6S)-2-amino-4-(fluoromethyl)-6-(trifluoromethyl)-5,6-dihydro-4H-1,3-oxazin-4-yl)-4-fluoro-5-methylphenyl)-5-chloro-3-methoxypicolinamide] | – | 0.091 | – | > 400 | 0.029 | – | –
Cc1cc(NC(=O)c2ccc(C#N)cn2)cc([C@]2(CF)C[C@@H](C(F)(F)F)OC(N)=N2)c1F [Example 225, N-(3-((4S,6S)-2-amino-4-(fluoromethyl)-6-(trifluoromethyl)-5,6-dihydro-4H-1,3-oxazin-4-yl)-4-fluoro-5-methylphenyl)-5-cyanopicolinamide] | – | 0.057 | – | > 400 | 0.024 | – | –
COc1cnc(C(=O)Nc2cc(C)c(F)c([C@]3(CF)C[C@@H](C(F)(F)F)OC(N)=N3)c2)c(C)c1 [Example 226, N-(3-((4S,6S)-2-amino-4-(fluoromethyl)-6-(trifluoromethyl)-5,6-dihydro-4H-1,3-oxazin-4-yl)-4-fluoro-5-methylphenyl)-5-methoxy-3-methylpicolinamide] | – | 0.048 | – | 780 | 0.049 | – | –
Cc1cc(OC(F)F)cnc1C(=O)Nc1cc(C)c(F)c([C@]2(CF)C[C@@H](C(F)(F)F)OC(N)=N2)c1 [Example 228, N-(3-((4S,6S)-2-amino-4-(fluoromethyl)-6-(trifluoromethyl)-5,6-dihydro-4H-1,3-oxazin-4-yl)-4-fluoro-5-methylphenyl)-5-(difluoromethoxy)-3-methylpicolinamide] | – | 0.032 | – | 775 | 0.028 | – | –
